Measured values published in patent EP2669276A1 (Université de Strasbourg, priority 2012, dated 2013).
Where “and” joins values, the source holds several entries; their conditions need not be identical. Identical values can stand only once. Like-named read-outs stand apart in the source and are kept apart here.

Experiments:
hNPFF1 = target: T1, hNPFF1 (Homo sapiens, UniProt Q9GZQ6); test: Receptor binding assay with [3H]-FFRFamide on CHO cell membranes expressing SF-hNPFFR1; conditions: for Ki: read-out: Ki NPFF1
T1 construct: The cDNA encoding the full-length human NPFFR1 and human NPFFR2; expressed in transfected cells
T1 sequence (Q9GZQ6 whole entry): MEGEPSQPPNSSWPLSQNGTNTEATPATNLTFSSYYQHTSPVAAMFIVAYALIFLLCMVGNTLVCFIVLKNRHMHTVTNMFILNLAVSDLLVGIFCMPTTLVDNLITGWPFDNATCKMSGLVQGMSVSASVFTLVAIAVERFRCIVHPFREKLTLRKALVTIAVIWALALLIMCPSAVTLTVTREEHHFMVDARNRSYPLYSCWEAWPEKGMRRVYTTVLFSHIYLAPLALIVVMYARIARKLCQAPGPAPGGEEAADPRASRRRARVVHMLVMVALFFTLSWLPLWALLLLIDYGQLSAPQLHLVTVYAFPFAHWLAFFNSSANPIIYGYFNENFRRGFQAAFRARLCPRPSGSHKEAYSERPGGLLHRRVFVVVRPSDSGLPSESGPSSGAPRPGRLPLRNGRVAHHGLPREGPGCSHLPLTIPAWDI
Excerpt: (§1) The cDNA encoding the full-length human NPFFR1 and human NPFFR2 were subcloned into the pcDNA3 expression vector (Invitrogen, Cergy Pontoise, France) using standard molecular biology methods. A sequence encoding a signal sequence and a Flag epitope was fused to the 5' coding sequence of both hNPFFR1 and hNPFFR2 cDNA according to (Guan et al., 1992) resulting in a SF-hNPFFR1 and SF-hNPFFR2 constructs. These contructs were stably transfected into CHO cells.
(§2) Membranes from CHO cells stably expressing SF-hNPFFR1 or SF-hNPFFR2 were prepared as described (Becker et al., 1999). SF-hNPFFR1 or SF-hNPFFR2 membranes (10µg) were incubated for 30 min at 25 °C in a final volume of 0.5 ml containing 50 mM HEPES pH 7.4, 1 mM CaCl2, 1 mM MgCl2, 0.1% bovine serum albumin, 10 nM and 3 nM [^3H]-FFRFamide (CEA, Paris; specific activity, 13,6 Ci/mmol) for […], respectively and the ligands to be tested. Non-specific binding was determined in presence of 1 µM neuropeptide FF for SF-hNPFFR2 and 1 µM neuropeptide VF for SF -hNPFFR1. Typical total and nonspecific binding were 1200 and 200 dpm, respectively for SF-hNPFFR1 and SF-hNPFFR2. Incubation mixtures were rapidly filtered and washed with 50 mM HEPES pH 7.4, 1 mM CaCl2, 1 mM MgCl2, on 96 wells GF/B unifilter (Perkin Elmer). Unifilter plates where then dryied for 1hr at 65°C. Bound radioactivity was determined by scintillation counting with 30 µl of scintillation cocktail (O-scint, Perkin Elmer) per well on a Topcount scintillation apparatus (Perkin Elmer).

hNPFF2 = target: T2, hNPFF2 (Homo sapiens, UniProt Q9Y5X5); test: Receptor binding assay with [3H]-FFRFamide on CHO cell membranes expressing SF-hNPFFR2; conditions: for Ki: read-out: Ki NPFF2
T2 construct: The cDNA encoding the full-length human NPFFR1 and human NPFFR2; expressed in transfected cells
T2 sequence (Q9Y5X5 whole entry): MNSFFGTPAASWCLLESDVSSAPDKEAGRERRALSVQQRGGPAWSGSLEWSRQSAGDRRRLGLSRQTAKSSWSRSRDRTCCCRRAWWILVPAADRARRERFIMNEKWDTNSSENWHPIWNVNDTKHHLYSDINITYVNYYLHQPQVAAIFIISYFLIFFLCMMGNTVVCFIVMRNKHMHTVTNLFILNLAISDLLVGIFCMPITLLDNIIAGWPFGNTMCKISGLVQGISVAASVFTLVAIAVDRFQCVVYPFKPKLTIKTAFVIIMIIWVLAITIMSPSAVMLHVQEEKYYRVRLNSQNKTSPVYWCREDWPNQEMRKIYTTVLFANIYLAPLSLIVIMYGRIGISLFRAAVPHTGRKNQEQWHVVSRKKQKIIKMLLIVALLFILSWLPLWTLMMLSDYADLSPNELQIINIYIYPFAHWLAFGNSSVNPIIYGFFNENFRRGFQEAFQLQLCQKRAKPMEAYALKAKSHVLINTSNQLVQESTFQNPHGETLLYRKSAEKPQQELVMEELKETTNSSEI
Excerpt: as §1, §2

hNPFFR1 [1] = target: T3, hNPFFR1 (Homo sapiens, UniProt Q9GZQ6); test: [35S]GTPγS binding measurement on SF-hNPFFR1 membranes; assay type: biochemical; conditions: tested alone, up to 50 µM
T3 construct: The cDNA encoding the full-length human NPFFR1 and human NPFFR2; expressed in transfected cells
T3 sequence (Q9GZQ6 whole entry): as the sequence (Q9GZQ6 whole entry) above
Experimental: For [^35S]GTPγS binding experiments, SF-hNPFFR1 or SF-hNPFFR2 membrane proteins (5 µg) were incubated for 45 min at 30 °C in a final volume of 0.5 ml containing 20 mM HEPES pH 7.4, 100 mM NaCl, 3 mM MgCl2, 10 µM GDP, 10 µg/ml Saponin, 0.1 nM [^35S]GTPγS and ligands. Non-specific binding was determined in the presence of 10 µM GTPγS. Incubation mixtures were rapidly filtered and washed with 10 mM HEPES pH 7.4, 0,5 M NaCl, 1,5 mM MgCl2, on 96 wells GF/B unifilter (Perkin Elmer). Unifilter plates where then dryied for 1hr at 65°C. Bound radioactivity was determined by scintillation counting with 30 µl of scintillation cocktail (O-scint, Perkin Elmer) per well on a Topcount scintillation apparatus (Perkin Elmer).

hNPFFR1 [2] = target: T3, hNPFFR1; test: cAMP measurement (forskolin-stimulated cAMP accumulation) in CHO cells expressing SF-hNPFFR1; assay type: cell-based
Experimental: Functional coupling of SF-hNPFFR1 and SF-hNPFFR2 to adenylyl cyclase was assessed by measuring the inhibitory effects of agonist/antagonist and related compounds on forskolin-stimulated cAMP accumulation in CHO cells stably expressing both receptors as previously described (Gicquiaux et al., 2001) with minor modifications. Briefly, 80% confluent CHO cells expressing SF-hNPFFR1 or SF-hNPFFR2 were harvested and seeded in 96-well plates at an initial density of 10,000 cells per well. After 1-2 days of culture (90% confluency), cells were washed with 0.2 ml of PBS (in mM: 137 NaCl, 2.7 KCl, 0.9 CaCl2, 0.5 MgCl2, 6.5 Na2HPO4, 1.5 KH2PO4, pH 7.2), and then incubated at 37°C for 10 min with 0.2 ml assay buffer (in mM: 150 NaCl, 5 KCl, 2.5 CaCl2, 1.2 KH2PO4, 1.2 MgSO4, 25 NaHCO3, 10 HEPES, 10 mg/ml BSA, pH 7.4). […] The reaction was stopped by addition of 0.04 ml volume ice-cold 0.5 M HCl and cells were frozen (-80°C 1 hour) disrupted by sonication and suspensions were centrifuged at 2,000 × g for 15 min. The resulting supernatants were stored at -20°C until determination of cAMP by radioimmunoassay as described (Cailla et al., 1973). For antagonist evaluation, dose response curves of agonists (NPVF and NPFF for hNPFFR1 and hNPFFR2, respectively) were performed in the presence of fixed concentrations of antagonist. […]

[3] = system: Fentanyl-induced hyperalgesia in rats; test: Fentanyl-induced hyperalgesia in rats (paw pressure vocalization test); assay type: in vivo; conditions: for fentanyl-induced hyperalgesia / development of fentanyl-induced hyperalgesia: rats, 30 min before fentanyl; for fentanyl-induced hyperalgesia: P < 0.001, Newman-Keuls test
[4] = system: Fentanyl-induced hyperalgesia followed by carrageenan injection in rats; test: Fentanyl-induced hyperalgesia followed by carrageenan injection in rats; assay type: in vivo; conditions: 0.5 mg/kg s.c. 30 min before fentanyl at D0, carrageenan at D13, P < 0.001 Newman-Keuls test
hNPFFR1 [5] = target: T3, hNPFFR1; test: cAMP measurement (forskolin-stimulated cAMP accumulation) in CHO cells expressing SF-hNPFFR1; assay type: cell-based; conditions: antagonism of NPVF, Schild analysis; S.E.M. below 15%
Experimental: (§3) Functional coupling of SF-hNPFFR1 and SF-hNPFFR2 to adenylyl cyclase was assessed by measuring the inhibitory effects of agonist/antagonist and related compounds on forskolin-stimulated cAMP accumulation in CHO cells stably expressing both receptors as previously described (Gicquiaux et al., 2001) with minor modifications. Briefly, 80% confluent CHO cells expressing SF-hNPFFR1 or SF-hNPFFR2 were harvested and seeded in 96-well plates at an initial density of 10,000 cells per well. After 1-2 days of culture (90% confluency), cells were washed with 0.2 ml of PBS (in mM: 137 NaCl, 2.7 KCl, 0.9 CaCl2, 0.5 MgCl2, 6.5 Na2HPO4, 1.5 KH2PO4, pH 7.2), and then incubated at 37°C for 10 min with 0.2 ml assay buffer (in mM: 150 NaCl, 5 KCl, 2.5 CaCl2, 1.2 KH2PO4, 1.2 MgSO4, 25 NaHCO3, 10 HEPES, 10 mg/ml BSA, pH 7.4). After removal of buffer, 0.06 ml of fresh buffer containing 1 mM 3-isobutyl-1-methyl-xanthine (IBMX) was added for 10 min and cells were exposed to 10 µM forskolin without and with compounds (10^-10-10^-5 M) for 10 min at 37 °C in a final volume of 0.1 ml. The reaction was stopped by addition of 0.04 ml volume ice-cold 0.5 M HCl and cells were frozen (-80°C 1 hour) disrupted by sonication and suspensions were centrifuged at 2,000 × g for 15 min. The resulting supernatants were stored at -20°C until determination of cAMP by radioimmunoassay as described (Cailla et al., 1973). […]

hNPFFR2 = target: T4, hNPFFR2 (Homo sapiens, UniProt Q9Y5X5); test: cAMP measurement (forskolin-stimulated cAMP accumulation) in CHO cells expressing SF-hNPFFR2; assay type: cell-based; conditions: antagonism of NPFF, Schild analysis; S.E.M. below 15%
T4 construct: The cDNA encoding the full-length human NPFFR1 and human NPFFR2; expressed in transfected cells
T4 sequence (Q9Y5X5 whole entry): as the sequence (Q9Y5X5 whole entry) above
Experimental: as §3

[6] = system: hyperalgesia induced by administration of opiate analgesics; conditions: rat, in vivo; cited from earlier work
[7] = [3H]-FFRF-NH2 radioligand, mean of at least two experiments
[8] = 0.5 µM, [3H]-FFRF-NH2 radioligand, mean of at least two experiments
[9] = 5 µM, [3H]-FFRF-NH2 radioligand, mean of at least two experiments

O=C(N[C@@H](CCCN1CCCCC1)C(=O)NCCc1ccccc1)c1ccccc1-c1ccccc1 [Compound 26, (2S)-N-(2-phenylethyl)-2-[(2-phenylphenyl)formamido]-5-(piperidin-1-yl)pentanamide]
Ki (hNPFF1; [7]): 60 nM and 65 nM | affinity for NPFFR1 (hNPFF1; in words): good affinity | Ki (hNPFF2; [3H]-FFRF-NH2 radioligand, unit µM printed with the value): > 13 µM | affinity for NPFFR2 (hNPFF2; in words): very low affinity | stimulation of the binding of [35S]GTPgS (hNPFFR1 [1]): did not stimulate | Kb (hNPFFR1 [2]; read-out: pA2 value for hNPFFR1 (converted)): 977 nM | decrease of forskolin-stimulated cAMP accumulation (hNPFFR1 [2]; tested alone, up to 50 µM): did not decrease | in vivo activity after oral administration ([3]; oral, low dose of 1 mg/kg): highly satisfactory in vivo activity | hyperalgesia induced by administration of fentanyl ([3]; rat, single 0.5 mg/kg dose, i.p.): blocks | fentanyl-induced hyperalgesia ([3]; 0.5 mg/kg subcutaneously): completely abolished | fentanyl-induced hyperalgesia ([3]; 3 mg/kg orally): completely abolished | development of fentanyl-induced hyperalgesia ([3]; orally 0.3, 1 and 3 mg/kg): dose-dependently prevented | development of fentanyl-induced hyperalgesia ([3]; subcutaneously 0.05, 0.1 and 0.5 mg/kg): dose-dependently prevented | increase in inflammatory hyperalgesia induced by prior fentanyl injection [4]: completely prevented

O=C(NCCc1ccccc1)[C@H](CCCN1CCC(Cc2ccccc2)CC1)NC(=O)C12CC3CC(CC(C3)C1)C2 [Compound 44, (2S)-2-(adamantan-1-ylformamido)-5-(4-benzylpiperidin-1-yl)-N-(2-phenylethyl)pentanamide]
Ki (hNPFF1; [7]): 603 ± 139 nM | Ki (hNPFF2; [7]): 0.188 ± 0.006 µM

O=C(C=C(c1ccccc1)c1ccccc1)N[C@@H](CCCN1CCC(Cc2ccccc2)CC1)C(=O)NCCc1ccccc1 [Compound 45, (2S)-5-(4-benzylpiperidin-1-yl)-2-(3,3-diphenylprop-2-enamido)-N-(2-phenylethyl)pentanamide]
inhibition at 0.5 µM (hNPFF1; [8]): 10 ± 18% | inhibition at 5 µM (hNPFF1; [9]): 12 ± 2% | inhibition at 0.5 µM (hNPFF2; [8]): 23 ± 25% | inhibition at 5 µM (hNPFF2; [9]): 25 ± 19%

O=C(CCCNC(=O)c1ccccc1)N[C@@H](CCCN1CCC(Cc2ccccc2)CC1)C(=O)NCCc1ccccc1 [Compound 46, (2S)-5-(4-benzylpiperidin-1-yl)-N-(2-phenylethyl)-2-[4-(phenylformamido)butanamido]pentanamide]
inhibition at 0.7 µM (hNPFF1; 0.7 µM (footnote e)): 35% | inhibition at 7 µM (hNPFF1; 7 µM (footnote d)): 59% | inhibition at 0.7 µM (hNPFF2; 0.7 µM (footnote e)): 4% | inhibition at 7 µM (hNPFF2; 7 µM (footnote d)): 39%

N^α-adamantan-1-yl-L-Arg-L-Phe-NH2 acetate [RF9]
pA2 value for hNPFFR1 (hNPFFR1 [5]): 6.47 | pA2 for hNPFFR2 (hNPFFR2): 6,65 | activity on hyperalgesia induced by repeated administration of opiate analgesics [6]: antihyperalgesic activity
